Measured values reported in publication PMC9014320 (Computational and Structural Biotechnology Journal, 2022).
Values belong to the compound of their own block, whether it stands above or below them.

How the values were obtained:
[1] = test system: rP2X2^gain; settings: rP2X2^gain versus rP2X3^WT
[2] = test system: cP2X3^A196G; assay: Patch-clamp recording of ATP current, cP2X3 A196G in HEK293 cells; assay type: cell-based, chicken; settings: AF-219 30 μM
[3] = target: P2X3 receptors; settings: read-out: IC50, the concentration yielding half of the maximal inhibition; cited from earlier work
[4] = test system: P2X2; settings: cited from earlier work
[5] = test system: rP2X3^L191A; settings: cited from earlier work
[6] = test system: P2X4; settings: cited from earlier work
[7] = test system: cP2X3^WT; assay: Patch-clamp recording of ATP current, cP2X3 WT in HEK293 cells; assay type: cell-based, chicken; settings: AF-219 30 μM
[8] = test system: P2X5; settings: cited from earlier work
[9] = test system: P2X1; settings: cited from earlier work
[10] = test system: P2X7; settings: cited from earlier work

Fold increase of IC50 for rP2X2^gain over rP2X3^WT [1]: 18 fold
SMILES: CCC(C)c1cc(OC)c(Cl)cc1Oc1cnc(N)nc1N (stereo not shown) [AF-219-2, 5-(2-(sec-butyl)-5-chloro-4-methoxyphenoxy)pyrimidine-2,4-diamine]

SMILES: COc1cc(C(C)C)c(Oc2cnc(N)nc2N)cc1S(N)(=O)=O [AF-219]
Effect on the ATP (10 μM)-current of cP2X3^A196G [2]: significantly inhibited
IC50 [3]: 0.0426 ± 0.0029 µM
IC50 [4]: > 10 µM
Inhibition of rP2X3^L191A [5]: almost fully abolished the inhibition
IC50 [6]: > 10 µM
Effect on the ATP (10 μM)-current of cP2X3^WT [7]: no inhibitory effect
IC50 [8]: > 10 µM
IC50 [9]: > 10 µM
IC50 [10]: > 10 µM
